Measured values published in the supplement of paper PMC13380429.

What was measured:
Settings in all cases: 72 h
[1] = tested on: Calu-3; assay: relative viability EC50 (midpoint between 100% and the lowest measured viability); higher = less toxic
[2] = tested on: U2OS; assay: as above
[3] = tested on: Vero E6; assay: as above
[4] = tested on: Caco-2; assay: as above
[5] = tested on: HepG2; assay: as above
[6] = tested on: Calu-3; assay: cell viability relative to DMSO; higher = less toxic
[7] = tested on: U2OS; assay: as above
[8] = tested on: Vero E6; assay: as above
[9] = tested on: Caco-2; assay: as above
[10] = tested on: HepG2; assay: as above
[11] = tested on: Calu-3; assay: drug sensitivity score (DSS) for viability; higher = more toxic; extreme values may be limits of the assay
[12] = tested on: U2OS; assay: as above
[13] = tested on: Vero E6; assay: as above
[14] = tested on: Caco-2; assay: as above
[15] = tested on: HepG2; assay: as above

| Structure (SMILES) | relative viability EC50 [1] | relative viability EC50 [2] | relative viability EC50 [3] | relative viability EC50 [4] | relative viability EC50 [5] | cell viability ([6]; 1 nM) | cell viability ([6]; 10 nM) | cell viability ([6]; 100 nM) | cell viability ([6]; 1000 nM) | cell viability ([6]; 10000 nM) | cell viability ([7]; 1 nM) | cell viability ([7]; 10 nM) | cell viability ([7]; 100 nM) | cell viability ([7]; 1000 nM) | cell viability ([7]; 10000 nM) | cell viability ([8]; 1 nM) | cell viability ([8]; 10 nM) | cell viability ([8]; 100 nM) | cell viability ([8]; 1000 nM) | cell viability ([8]; 10000 nM) | cell viability ([9]; 1 nM) | cell viability ([9]; 10 nM) | cell viability ([9]; 100 nM) | cell viability ([9]; 1000 nM) | cell viability ([9]; 10000 nM) | cell viability ([10]; 1 nM) | cell viability ([10]; 10 nM) | cell viability ([10]; 100 nM) | cell viability ([10]; 1000 nM) | cell viability ([10]; 10000 nM) | drug sensitivity score [11] | drug sensitivity score [12] | drug sensitivity score [13] | drug sensitivity score [14] | drug sensitivity score [15] |
| --- | --- | --- | --- | --- | --- | --- | --- | --- | --- | --- | --- | --- | --- | --- | --- | --- | --- | --- | --- | --- | --- | --- | --- | --- | --- | --- | --- | --- | --- | --- | --- | --- | --- | --- | --- |
| CCC(=O)O[C@@H]1CC(=O)O[C@H](C)C/C=C/C=C/[C@H](OC(C)=O)[C@H](C)C[C@H](CC=O)[C@H](O[C@@H]2O[C@H](C)[C@@H](O[C@H]3C[C@@](C)(OC(C)=O)[C@@H](OC(=O)CC)[C@H](C)O3)[C@H](N(C)C)[C@H]2O)[C@H]1OC [miocamycin] | > 10 µM | > 10 µM | > 10 µM | > 10 µM | > 10 µM | 91.1% | 104% | 85.1% | 92.8% | 82.4% | 96.9% | 98.7% | 97.9% | 99.7% | 92.4% | 97.5% | 96.8% | 96.4% | 99.1% | 96.7% | 98.4% | 102% | 96.5% | 96.5% | 85.6% | 96.2% | 90.8% | 103% | 90.6% | 90% | 0.9 | 0 | 0 | 0.4 | 0 |
| Nc1nc(CC(=O)Nc2ccc(CCNC[C@H](O)c3ccccc3)cc2)cs1 [mirabegron] | > 10 µM | > 10 µM | > 10 µM | > 10 µM | > 10 µM | 93.8% | 97% | 100% | 110% | 108% | 102% | 98.2% | 93.6% | 102% | 97.5% | 99.1% | 96.3% | 101% | 93.2% | 103% | 99.8% | 100% | 97.7% | 108% | 92.2% | 104% | 96.6% | 104% | 93.2% | 102% | 0 | 0 | 0 | 0 | 0 |
| O=C(NCCN1CCOCC1)c1ccc(Cl)cc1 [moclobemide] | > 10 µM | > 10 µM | > 10 µM | > 10 µM | > 10 µM | 93.5% | 103% | 92.9% | 103% | 106% | 92.6% | 98.9% | 96.3% | 103% | 106% | 98.5% | 93.3% | 98.5% | 95.9% | 110% | 88.4% | 99.2% | 90.7% | 88.9% | 94.1% | 99.4% | 94.4% | 108% | 98.3% | 103% | 0 | 0 | 0 | 0 | 0 |
| CCCCCCCCCCCCCCCCCC(=O)OCC(O)CO (stereo not given) [monostearin] | > 10 µM | > 10 µM | > 10 µM | > 10 µM | > 10 µM | 103% | 101% | 83.9% | 105% | 94.8% | 97.8% | 96.5% | 92% | 104% | 93.8% | 99.9% | 106% | 96.3% | 99.5% | 100% | 100% | 96.9% | 89.6% | 100% | 96.9% | 104% | 103% | 97.1% | 96.5% | 102% | 0 | 0 | 0 | 0 | 0 |
| C=CCN1CC[C@]23c4c5ccc(O)c4O[C@H]2[C@@H](OCCOCCOCCOCCOCCOCCOCCOC)CC[C@@]3(O)[C@H]1C5 [naloxegol] | > 10 µM | > 10 µM | > 10 µM | > 10 µM | > 10 µM | 97.1% | 107% | 91.7% | 101% | 88.7% | 93.9% | 99.1% | 95% | 98.8% | 96.5% | 101% | 96.7% | 103% | 97.5% | 105% | 107% | 97.9% | 98.5% | 104% | 105% | 99.8% | 94% | 97.8% | 93.6% | 107% | 0 | 0 | 0 | 0 | 0 |
| CCN(CC)CCOC(=O)C1(c2ccc([N+](=O)[O-])cc2)CCCC1 [nitrocaramiphen] | > 10 µM | > 10 µM | > 10 µM | > 10 µM | > 10 µM | 90% | 95.7% | 96.5% | 94% | 98.2% | 95.5% | 102% | 95.4% | 94.8% | 98.5% | 104% | 92.9% | 97.2% | 102% | 106% | 103% | 90.1% | 98.3% | 106% | 101% | 107% | 97.2% | 103% | 108% | 102% | 0 | 0 | 0 | 0 | 0 |
| CCn1cc(C(=O)O)c(=O)c2cc(F)c(N3CCNCC3)cc21 [norfloxacin] | > 10 µM | > 10 µM | > 10 µM | > 10 µM | > 10 µM | 93.9% | 83.9% | 92.2% | 91.3% | 104% | 100% | 99.1% | 97.9% | 104% | 105% | 93.1% | 99.3% | 94.8% | 94.1% | 104% | 104% | 93.9% | 96.1% | 106% | 103% | 100% | 98.5% | 102% | 100% | 101% | 0 | 0 | 0 | 0 | 0 |
| CCCCCCCC/C=C\CCCCCCCC(=O)NCc1ccc(O)c(OC)c1 [olvanil] | > 10 µM | > 10 µM | > 10 µM | > 10 µM | > 10 µM | 100% | 95% | 101% | 118% | 94.4% | 102% | 98.1% | 95.8% | 95.9% | 91% | 102% | 101% | 95.5% | 103% | 101% | 97.2% | 100% | 98% | 94.3% | 100% | 96.3% | 97.2% | 104% | 94.3% | 96.5% | 0 | 0 | 0 | 0 | 0 |
| O=C(Nc1cc(Cl)cc(Cl)c1O)c1c(O)c(Cl)cc(Cl)c1Cl [oxyclozanide] | > 10 µM | > 10 µM | > 10 µM | > 10 µM | > 10 µM | 107% | 90.4% | 104% | 88.7% | 103% | 98.7% | 97.6% | 97.8% | 100% | 97.2% | 95% | 98.6% | 96.2% | 101% | 95.4% | 98.4% | 106% | 91.7% | 91.9% | 97.4% | 105% | 99.2% | 96.4% | 98% | 101% | 0 | 0 | 0 | 0 | 0 |
| CN1CCCN=C1COC(=O)C(O)(c1ccccc1)C1CCCCC1 (stereo not given) [oxyphencyclimine] | > 10 µM | > 10 µM | > 10 µM | > 10 µM | > 10 µM | 93% | 102% | 102% | 98.8% | 94.7% | 97.2% | 101% | 94.6% | 97.3% | 93% | 103% | 104% | 100% | 91.7% | 91.8% | 99.8% | 99.3% | 100% | 106% | 102% | 93.6% | 102% | 105% | 91.3% | 92.2% | 0 | 0 | 0 | 0 | 0 |
| Cc1ccc(-c2cn3c4c(sc3n2)CCCC4)cc1 [pifithrin-cyclic] | > 10 µM | > 10 µM | > 10 µM | > 10 µM | > 10 µM | 98.3% | 105% | 100% | 109% | 107% | 102% | 101% | 101% | 102% | 98.5% | 119% | 96.5% | 109% | 102% | 97.1% | 104% | 93% | 91.2% | 105% | 92.9% | 105% | 99.1% | 105% | 108% | 91.7% | 0 | 0 | 0 | 0 | 0 |
| OC[C@H]1O[C@@H](Oc2cc(O)cc(/C=C/c3ccc(O)cc3)c2)[C@H](O)[C@@H](O)[C@@H]1O [polydatin] | > 10 µM | > 10 µM | > 10 µM | > 10 µM | > 10 µM | 100% | 101% | 96.9% | 103% | 102% | 101% | 103% | 102% | 99.4% | 98.2% | 101% | 104% | 95.7% | 100% | 99% | 99.4% | 97.2% | 97.4% | 101% | 96.3% | 98.1% | 93.9% | 93.2% | 96.6% | 96.8% | 0 | 0 | 0 | 0 | 0 |
| CC(C)N(CCNC(=O)CN1CCCC1=O)C(C)C [pramiracetam] | > 10 µM | > 10 µM | > 10 µM | > 10 µM | > 10 µM | 95.7% | 103% | 109% | 100% | 103% | 98.8% | 93.2% | 103% | 95.6% | 105% | 93.9% | 97% | 94.4% | 99.7% | 108% | 94.6% | 93.6% | 114% | 96.4% | 98.9% | 101% | 100% | 97.6% | 107% | 104% | 0 | 0 | 0 | 0 | 0 |
